Experimental data: patent publication US20040005294A1, “IGFBP-3 in the diagnosis and treatment of cancer” (priority 2002, published 2004)

Experiments:
1799 cells = test: MTT proliferation assay, 1799 cells; format: cell-based, human; conditions: 2×10^−6 M or 4×10^−6 M, 2 days
Method: To measure the effects of deguelin on cell proliferation, NHBE, 1799, 1198, 1170-1, and HB56B cells were plated at concentrations of 2×10^3 to 4×10^3 cells/well in 96-well plates. The next day, cells were treated with either 0.1% DMSO as a diluent control or various concentrations of deguelin (final DMSO concentration=0.1%). At the end of the assay time period, cell proliferation was measured by the 3-(4,5-dimethylthiazol-2-yl)-2,5-diphenyltetrazolium bromide (MTT) assay as described (Lee et al., 2002). Six replicate wells were used for each analysis, and data from replicate wells are presented as means with 95% confidence intervals (CIs). For some experiments, the drug concentration required to inhibit cell growth by 50% (IC50) was determined by interpolation from dose-response curves. At least three independent experiments were performed.
To determine whether deguelin-induced antiproliferative effects on premalignant HBE cells were mediated through the inhibition of the PI3K/Akt pathway, 2×10^5 1799 cells/well or 1×10 ^6 squamous HBE cells/well in six-well plates were infected with 5×10 ^3 particles/cell of a control virus (Ad5CMV) or with 1×10^3 or 5×10^3 particles/cell of Ad5CMV-MyrAkt-HA, an adenoviral vector that expresses a constitutively active Akt. (MyrAkt) in KSFM. After 1 day of infection, cells were treated with 10^−7M or 10^−6M deguelin, 2×10^−6 M or 4×10^−6M N-(4-hydroxyphenyl)retinamide (4-HPR), or 0.1% DMSO as a control and then incubated for 1 or 2 days. Apoptosis was analyzed using the APO-BrdU staining kit for TUNEL, Western blot analyses for caspase-3, and the cleavage of PARP.

[1] = system: PI3K/Akt pathway in 1799 cells; test: Immunoblot of pAkt and pGSK-3β, 1799 cells; format: cell-based, human; conditions: 2-4 μM
Method: Whole cell lysates from 1×10^6 cells were prepared in lysis buffer as described (Lonardo et al., 2002). Equivalent amounts of protein were resolved by sodium dodecyl sulfate (SDS)-polyacrylamide gels (7.5%-12%) and transferred to a nitrocellulose membrane. After the membrane was blocked in Tris-buffered saline (TBS) containing 0.05% Tween 20 (TBST) and 5% (w/v) nonfat powdered milk, the membrane was incubated with primary antibody at the appropriate dilution in TBS-5% nonfat milk at 4° C. for 16 h. The membrane was then washed multiple times with TBST and incubated with the appropriate horseradish peroxidaseconjugated secondary antibody for 1 h at room temperature. The protein-antibody complexes were detected by enhanced chemilurminescence (ECL kit; Amersham, Arlington Heights, Ill.), according to the manufacturer's recommended protocol. […]

[2] = system: IGFBP-3 mRNA in H1299 cells; test: Northern blot of IGFBP-3 expression after demethylating agent; format: cell-based, human; conditions: 5 days, RPMI 1640 with 2% FCS
Method: NSCLC cell lines and H1299 cells treated with 0.1, 1, or 5 μM of 5-aza-dC (Sigma, St. Luois, Mo.) for 5 days in RPMI 1640 medium containing 2% FCS were lysed in 4.0 M guanidinium isothiocyanate, and total cellular RNA was extracted as described previously (Kim et al., 1995). 20 μg of RNA was subjected to electrophoresis on a 1% agarose gel containing 2% formaldehyde. After gels were soaked in 50 mM NaOH/1×standard saline citrate (SSC) for 20 min followed by 10×SSC for 20 min, RNA was transferred onto a Zeta-Probe membrane (Bio-Rad Laboratories, Hercules, Calif.) overnight by the capillary transfer method. Membranes were cross-linked and then incubated in the hybridization solution containing […] IGFBP-3 or glyceraldehyde-3-phosphate dehydrogenase (GAPDH) cDNA as a control. The probe was labeled using a Prime-It® II Random Primer Kit (Stratagene, La Jolla, Calif.) and harvested with MicroSpin™ S-300 HR Columns (Amersham Phamacia Biotech Inc., Piscataway, N.J.). After overnight incubation, membranes were washed in high stringency condition and exposed to enhanced chemiluminescence (ECL) films for autoradiography.

H1299 cells = test: Apoptosis by APO-BRDU staining and flow cytometry; format: cell-based, human; conditions: serum-free medium, 100 ng/ml IGF-I, 3 days
Method: Apoptosis was measured using the APO-BRDU staining kit (Phoenix Flow Systems, San Diego, Calif.) as previously described (Sueoka et al., 2000). Briefly, H1299 cells were untreated or infected with Ad5CMV or Ad5CMV-BP3, and then allowed to grow in serum-free medium or medium containing 10% serum or 100 ng/ml IGF-I for 3 days. Floating and adherent cells were analyzed using a FACScan flow cytometer (Becton Dickinson, San Jose, Calif.) to determine the percentage of apoptotic cells. The percentage of dead cells was determined by FACS analysis of propidium iodide-stained nuclei. Apoptosis was also determined by detecting of nucleosomal DNA fragmentation, which was measured using the TACS apoptotic DNA laddering kit (Trevigen, Inc., Gaithersburg, Md.) according to the manufacturer's protocol. Briefly, DNA was isolated from untreated or virus-infected H1299 cells by incubating the cells in lysis buffer. DNA samples were then subjected to electrophoresis on a 1.5% agarose gel and visualized by ethidium bromide staining. […] Apoptosis was measured using the APO-BRDU staining kit as described above.

NSCLC cell lines = test: MTT cell growth assay, NSCLC cell lines; format: cell-based, human; conditions: serum-free medium, 3 days
Method: To measure the effects of IGF-I and IGF-II on proliferation of NSCLC cells, 2×10^3 NSCLC cell lines were incubated in serum-free medium containing 0.01-500 ng/ml IGF-I or IGF-II for 3 days. To measure the effects of Ad5CMV-BP-3 on proliferation of NHBE and NSCLC cell lines, these cells were seeded at 1×10^−2×10^3 cells/well in 96-well plates. After 1 day, cells were untreated or infected with 1×10^3, 5×10^3, or 1×10^4 particles/cell of Ad5CMV-BP3 or Ad5CMV (parental virus) as a viral control. Infection was allowed to occur for 2 h in the absence of serum, and infected cells were grown in medium containing 100 ng/ml or 250 ng/ml IGF-I. After 3 days of incubation, the growth of infected cells was measured by the 3-(4,5-dimethylthiazol-2-yl)-2,5-diphenyltetrazolium bromide (MTT) assay as previously described (Sueoka et al., 2000).

IGF-I = IGF-I (Homo sapiens, UniProt P05019); test: Western ligand blot of conditioned media; format: binding; conditions: conditioned media of Ad5CMV-BP3-infected H1299 cells, [125I]IGF-I probe
Chain of IGF-I (P05019 49-118 limits assumed, species assumed): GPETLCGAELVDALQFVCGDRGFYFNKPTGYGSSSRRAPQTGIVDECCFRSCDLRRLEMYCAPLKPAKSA
Chain of IGF-I (P17936 28-291 partner, species assumed): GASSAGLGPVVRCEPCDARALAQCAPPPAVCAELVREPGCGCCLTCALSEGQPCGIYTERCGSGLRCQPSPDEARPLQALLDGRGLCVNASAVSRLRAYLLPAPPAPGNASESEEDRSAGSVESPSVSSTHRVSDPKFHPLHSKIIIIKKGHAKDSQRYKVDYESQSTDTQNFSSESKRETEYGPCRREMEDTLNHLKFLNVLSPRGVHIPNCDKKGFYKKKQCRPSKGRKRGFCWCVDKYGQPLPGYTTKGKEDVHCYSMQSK
Method: Conditioned media were collected from H1299 cells after adenoviral infection. Western blot and Western ligand blot analyses were performed using 30 μg of whole cell lysate or 30 μl of conditioned media as previously described (Sueoka et al., 2000).

chick embryo CAM = test: Chorioallantoic membrane angiogenesis induced by bFGF; format: in vivo; conditions: bFGF 50 ng alone, 72 h; positive eggs/total
Method: To assess whether IGFBP-3 is able to inhibit angiogenesis chick embryos were induced with IGFBP3 and dnIGFIR. On day 10, each CAM was exposed to bFGF (50 ng/disk) in the absence or presence of 10^4 particles of Ad5CMV alone, Ad5CMV-IGFBP3, or Ad5CMV-dnIGFIR. After 72 h of incubation, a fat emulsion was injected into the CAM to visualize the blood vessels. CAMs were examined with a microscope to count the positive responsive eggs which have spoke wheel-like vessels. Both IGFBP3 and dnIGFIR inhibited chorioallantoic membrane angiogenesis induced by bFGF FIG. 14. The results are expressed as the percentages of embryos showing activation (FIG. 14A). Positivity for angiogenesis in chick embryos subjected to various conditions was as follows: Collagen alone: 1/5; bFGF (50 ng): 5/5; EV(10^4)+bFGF: 7/8; IGFBP3(10^4)+bFGF: 4/9; dnAKT (10^4)+bFGF: 8/9; dnIGFR (10^4)+bFGF: 4/9; and KP372 (100 nM)+bFGF: 8/9.

CC1=C(/C=C/C(C)=C/C=C/C(C)=C/C(=O)Nc2ccc(O)cc2)C(C)(C)CCC1 [4-HPR, N-(4-hydroxyphenyl)retinamide, reference compound]
cell proliferation, control versus constitutively active Akt (1799 cells): no difference in cell proliferation
levels of pAkt and pGSK-3β [1]: did not alter levels of pAkt and pGSK-3β

Nc1ncn([C@H]2C[C@H](O)[C@@H](CO)O2)c(=O)n1 [5-aza-dC]
concentration reactivating IGFBP-3 expression [2]: More than 1 μM

IGF-I: insulin-like growth factor I, purchased from R&D Systems
effect on serum depletion-induced apoptosis (H1299 cells): rescued H1299 cells from serum depletion-induced apoptosis
concentration inducing growth of NSCLC cell lines (NSCLC cell lines): > 10 ng/mL

IGF-II: IGF-II purchased from R&D Systems
mitogenic effect on NSCLC cell growth (NSCLC cell lines): minimal mitogenic effect

IGFBP-3: insulin growth factor binding protein 3 secreted from Ad5CMV-BP3-infected H1299 cells
binding of secreted IGFBP-3 to IGF-I (IGF-I): bound strongly

bFGF: angiogenesis inducer, 50 ng/disk, in the CAM assay
positivity for angiogenesis in chick embryos (chick embryo CAM): 5/5
